The conditions of data set [1]: increased gastric pH; cited from earlier work.
The conditions of data set [2]: cited from earlier work.
The nature of data set [3]: dissolution, paddle method USP XXII apparatus II. In kind it is physicochemical. The following applies: 900 ml 0.1 N HCl; tablet with 150 mg salt; 5-60 minutes; FIG. 1. How it is done:
The paddle method is used in accordance with USP XXII, p. 1579, (apparatus II), with 900 ml 0.1 N HCl. […] Samples are taken after 5, 10, 20, 30 and 60 minutes and diluted.
The samples are analyzed spectrophotometrically at 345.9 nm in a Shimadzu 160 A photometer.

As for `CCO.C[C@H]1c2cccc(O)c2C(=O)C2=C(O)[C@]3(O)C(=O)C(C(N)=O)=C(O)[C@@H](N(C)C)[C@@H]3[C@@H](O)[C@@H]21.C[C@H]1c2cccc(O)c2C(=O)C2=C(O)[C@]3(O)C(=O)C(C(N)=O)=C(O)[C@@H](N(C)C)[C@@H]3[C@@H](O)[C@@H]21.Cl.Cl.O` [doxycyclin hyclate, doxycyclin hydrochloride (hyclate)], in data set [1], the “effect of increased pH of the stomach on bioavailability / dissociation and absorption” value is given as “independent of pH”. Moreover, the “patients spontaneously reporting nausea and vomiting” value in data set [2] (24/373 patients) is reported as 6.4%. Moreover, the “patients reporting nausea and vomiting after questioning” value in data set [2] (35/113 patients) was 31%. Besides, the “frequency of nausea and vomiting relative to other antibiotics” value in data set [2] (in vivo) is on record as 3 fold.
As for `C[C@H]1c2cccc(O)c2C(=O)C2=C(O)[C@]3(O)C(=O)C(C(N)=O)=C(O)[C@@H](N(C)C)[C@@H]3[C@@H](O)[C@@H]21.O` [doxycyclin monohydrate], the “effect of increased pH of the stomach on bioavailability / dissociation and absorption” value in data set [1] is on record as “decreases the bioavailability”.
For “Doxycyclin Sucrose-octa-O-sulphonic Acid Salt [Example 2]”, in data set [3], the “release versus time compared with Vibramycin” value is “delayed release characteristics are similar”.

These data come from patent US6077822A, “Drug salts” (Dumex-Alpharma A/S, priority 1993, dated 2000).
